This note sets out measurements from PubChem BioAssay AID256 (DTP/NCI, 2004).

Where “and” joins values, the source holds several entries; their conditions need not be identical. Equal entries are not always repeated. Inconclusive results and toxic doses are left out.

The subject of the test is CD2F1 mice, L1210 leukemia ip, survival T/C. The test can be described thus: NCI In Vivo Anticancer Drug Screen. Data for tumor model L1210 Leukemia (intraperitoneal) in CD2F1 (CDF1) mice. The settings on record: endpoint: mean survival time, higher = longer survival. A digest of the protocol:
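Implant tumor; dose compound or vehicle; measure endpoint in both groups; report treated divided by control.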

Where [1] appears, read: dose: 100.0 mg/kg/injection, schedule: Q04DX003 (ip), vehicle: saline with Tween-80.
Setting [2] is: dose: 200.0 mg/kg/injection, schedule: Q04DX003 (ip), vehicle: saline with Tween-80.
Setting [3] is: dose: 400.0 mg/kg/injection, schedule: Q04DX003 (ip), vehicle: saline with Tween-80.
Where [4] appears, read: dose: 50.0 mg/kg/injection, schedule: Q01DX009 (ip), vehicle: saline.
Setting [5] is: dose: 100.0 mg/kg/injection, schedule: Q01DX009 (ip), vehicle: saline.
The mark [6] stands for this setting: dose: 5.0 mg/kg/injection, schedule: Q01DX009 (ip), vehicle: Klucel (hydroxypropylcellulose) (HPC).
Setting [7] is: dose: 6.25 mg/kg/injection, schedule: Q01DX009 (ip), vehicle: saline with Tween-80.
Where [8] appears, read: dose: 12.5 mg/kg/injection, schedule: Q01DX009 (ip), vehicle: saline with Tween-80.
Setting [9] is: dose: 100.0 mg/kg/injection, schedule: Q01DX001 (ip), vehicle: saline with Tween-80.
[10] abbreviates: dose: 100.0 mg/kg/injection, schedule: Q01DX009 (ip), vehicle: saline with Tween-80.
Where [11] appears, read: dose: 200.0 mg/kg/injection, schedule: Q01DX009 (ip), vehicle: saline with Tween-80.
Setting [12] is: dose: 400.0 mg/kg/injection, schedule: Q01DX009 (ip), vehicle: saline with Tween-80.

With `Cc1ccc(S(=O)(=O)N/N=C/C(Br)=C(/Br)C(=O)O)cc1`, the T/C (dose: 3.12 mg/kg/injection, schedule: Q01DX009 (ip), vehicle: Klucel (hydroxypropylcellulose) (HPC)) was 104 % of control; the T/C (dose: 6.25 mg/kg/injection, schedule: Q01DX009 (ip), vehicle: Klucel (hydroxypropylcellulose) (HPC)) was 112 % of control; the T/C (dose: 12.5 mg/kg/injection, schedule: Q01DX009 (ip), vehicle: Klucel (hydroxypropylcellulose) (HPC)) is 113 % of control; the T/C (dose: 25.0 mg/kg/injection, schedule: Q01DX009 (ip), vehicle: Klucel (hydroxypropylcellulose) (HPC)) was 115 % of control and 105 % of control; the T/C (dose: 50.0 mg/kg/injection, schedule: Q01DX009 (ip), vehicle: Klucel (hydroxypropylcellulose) (HPC)) was 113 % of control and 102 % of control; the T/C (dose: 100.0 mg/kg/injection, schedule: Q01DX009 (ip), vehicle: Klucel (hydroxypropylcellulose) (HPC)) was 120 % of control and 108 % of control. For the same compound, the T/C (dose: 200.0 mg/kg/injection, schedule: Q01DX009 (ip), vehicle: Klucel (hydroxypropylcellulose) (HPC)) was 104 % of control.
In the case of `CC(=O)NS(=O)(=O)c1ccc([NH-])cc1.CC(=O)NS(=O)(=O)c1ccc([NH-])cc1.[I][Pt+2][I]`, the T/C is, setting by setting: (dose: 25.0 mg/kg/injection, schedule: Q04DX003 (ip), vehicle: saline with Tween-80) 96 % of control; (dose: 50.0 mg/kg/injection, schedule: Q04DX003 (ip), vehicle: saline with Tween-80) 94 % of control; under setting [1], 107 % of control; under setting [2], 100 % of control; under setting [3], 103 % of control.
Take `CCCCC(CCC)(CCN)CCCC`: the T/C is, setting by setting: (dose: 3.0 mg/kg/injection, schedule: Q01DX009 (ip), vehicle: saline) 106 % of control; (dose: 6.0 mg/kg/injection, schedule: Q01DX009 (ip), vehicle: saline) 98 % of control; (dose: 12.0 mg/kg/injection, schedule: Q01DX009 (ip), vehicle: saline) 104 % of control; (dose: 12.5 mg/kg/injection, schedule: Q04DX003 (ip), vehicle: saline) 103 % of control.
With `CC(C)N(CCCC#N)C(C)C`, the T/C under setting [4] is 96 % of control, the T/C under setting [5] is 95 % of control, the T/C under setting [1] is 97 % of control and the T/C under setting [2] was 89 % of control.
Regarding `ClCC[N+]12CC[N+](CCCl)(CC1)C2`, the T/C runs as follows: (dose: 6.25 mg/kg/injection, schedule: Q01DX009 (ip), vehicle: water) 95 % of control and 106 % of control and 109 % of control; (dose: 12.5 mg/kg/injection, schedule: Q01DX009 (ip), vehicle: saline) 106 % of control [middle of 4 runs]; (dose: 12.5 mg/kg/injection, schedule: Q01DX009 (ip), vehicle: water) 117 % of control and 104 % of control and 108 % of control; (dose: 25.0 mg/kg/injection, schedule: Q01DX009 (ip), vehicle: saline) 110 % of control [middle of 4 runs]; (dose: 25.0 mg/kg/injection, schedule: Q01DX009 (ip), vehicle: water) 115 % of control and 106 % of control and 109 % of control; under setting [4], 117 % of control and 102 % of control and 109 % of control. The T/C reads like this: (dose: 50.0 mg/kg/injection, schedule: Q01DX009 (ip), vehicle: water) 113 % of control and 119 % of control and 120 % of control; (dose: 50.0 mg/kg/injection, schedule: Q04DX003 (ip), vehicle: saline) 102 % of control; (dose: 66.0 mg/kg/injection, schedule: Q01DX009 (ip), vehicle: saline) 154 % of control; under setting [5], 116 % of control and 94 % of control; (dose: 100.0 mg/kg/injection, schedule: Q01DX009 (ip), vehicle: water) 111 % of control; (dose: 100.0 mg/kg/injection, schedule: Q04DX003 (ip), vehicle: saline) 102 % of control. Moreover, the T/C is 190 % of control (dose: 150.0 mg/kg/injection, schedule: Q01DX009 (ip), vehicle: saline); 118 % of control (dose: 150.0 mg/kg/injection, schedule: Q04DX003 (ip), vehicle: saline); 108 % of control [middle of 5 runs] (dose: 200.0 mg/kg/injection, schedule: Q01DX009 (ip), vehicle: saline); 123 % of control (dose: 200.0 mg/kg/injection, schedule: Q04DX003 (ip), vehicle: saline); 119 % of control (dose: 300.0 mg/kg/injection, schedule: Q04DX003 (ip), vehicle: saline); 121 % of control and 105 % of control (dose: 400.0 mg/kg/injection, schedule: Q01DX009 (ip), vehicle: saline). Also, the T/C (dose: 400.0 mg/kg/injection, schedule: Q04DX003 (ip), vehicle: saline) is 178 % of control.
As for `C=C1C(C)C2C(Cc3ccccc3)NC(=O)C23C(OC(C)=O)C=CC(C)(O)C(=O)C(C)C/C=C/C3C1O` (stereo unspecified), the T/C by setting is: (dose: 0.63 mg/kg/injection, schedule: Q01DX009 (ip), vehicle: Klucel (hydroxypropylcellulose) (HPC)) 101 % of control; (dose: 1.25 mg/kg/injection, schedule: Q01DX009 (ip), vehicle: Klucel (hydroxypropylcellulose) (HPC)) 101 % of control; (dose: 2.5 mg/kg/injection, schedule: Q01DX009 (ip), vehicle: Klucel (hydroxypropylcellulose) (HPC)) 95 % of control; under setting [6], 98 % of control.
Turning to `COc1cc(N)ccc1NC(=O)c1ccccc1`, the T/C under setting [7] is 94 % of control; the T/C under setting [8] was 94 % of control and 100 % of control; the T/C (dose: 25.0 mg/kg/injection, schedule: Q01DX009 (ip), vehicle: saline with Tween-80) was 93 % of control and 105 % of control.
Take `O=P(Oc1ccccc1)(c1ccccc1)c1ccccc1`: the T/C runs as follows: under setting [1], 109 % of control; under setting [2], 95 % of control; under setting [3], 109 % of control.
In the case of `O=[N+]([O-])/C=C\c1cc2c3c(c1)CCCN3CCC2`, the T/C reads like this: (dose: 3.13 mg/kg/injection, schedule: Q01DX009 (ip), vehicle: saline with Tween-80) 105 % of control; under setting [7], 97 % of control; under setting [8], 100 % of control; (dose: 50.0 mg/kg/injection, schedule: Q01DX001 (ip), vehicle: saline with Tween-80) 105 % of control; under setting [9], 103 % of control.
Take `Cc1c(Cc2ccccc2)[n+](=O)c2ccccc2n1[O-]`: the T/C is, setting by setting: under setting [1], 97 % of control; under setting [2], 101 % of control; under setting [3], 98 % of control.
Consider `CC[C@](C)(O)C(=O)O[C@H]1C(=O)O[C@@H]2C[C@H]3C(C)=CC(=O)[C@@H](O)[C@]3(C)[C@H]3[C@@]4(O)OC[C@]32[C@@H]1[C@@H](C)[C@H]4O`, for which the T/C was 101 % of control (dose: 12.5 micrograms/kg/injection, schedule: Q01DX009 (ip), vehicle: saline with Tween-80); 100 % of control (dose: 25.0 micrograms/kg/injection, schedule: Q01DX009 (ip), vehicle: saline with Tween-80); 105 % of control (dose: 50.0 micrograms/kg/injection, schedule: Q01DX009 (ip), vehicle: saline with Tween-80); 112 % of control (dose: 100.0 micrograms/kg/injection, schedule: Q01DX009 (ip), vehicle: saline with Tween-80).
For the compound `CC(C)OC(=O)CCl`, the T/C reads like this: under setting [9], 100 % of control; (dose: 200.0 mg/kg/injection, schedule: Q01DX001 (ip), vehicle: saline with Tween-80) 100 % of control.
Regarding `O=C(/C=C(\Br)c1ccccc1)c1ccccc1`, the T/C (dose: 100.0 mg/kg/injection, schedule: Q04DX002 (ip), vehicle: saline with Tween-80) is 91 % of control.
As to `CC1C=CC(C)c2c(-c3ccccc3)oc(-c3ccccc3)c21` (stereo unspecified), the T/C under setting [10] was 88 % of control; the T/C under setting [1] was 100 % of control; the T/C under setting [11] is 86 % of control; the T/C under setting [2] was 97 % of control; the T/C under setting [12] was 91 % of control; the T/C under setting [3] was 96 % of control.
As for `CN(C)N=Nc1cccc(C(N)=O)c1`, the T/C under setting [6] was 112 % of control; the T/C (dose: 10.0 mg/kg/injection, schedule: Q01DX009 (ip), vehicle: Klucel (hydroxypropylcellulose) (HPC)) was 113 % of control; the T/C (dose: 20.0 mg/kg/injection, schedule: Q01DX009 (ip), vehicle: Klucel (hydroxypropylcellulose) (HPC)) is 117 % of control; the T/C (dose: 80.0 mg/kg/injection, schedule: Q01DX009 (ip), vehicle: Klucel (hydroxypropylcellulose) (HPC)) was 113 % of control; the T/C (dose: 108.0 mg/kg/injection, schedule: Q01DX009 (ip), vehicle: Klucel (hydroxypropylcellulose) (HPC)) is 93 % of control.
Regarding `COC1OC(COC(C)=O)C(OC2OC(COC(C)=O)C(OC(C)=O)C(OC(C)=O)C2OC(C)=O)C(OC(C)=O)C1OC(C)=O` (stereo unspecified), the T/C by setting is: under setting [10], 98 % of control; under setting [11], 104 % of control; under setting [12], 106 % of control.
On to `COC(=O)/C(C#N)=C\c1ccccc1`, for which the T/C (dose: 50.0 mg/kg/injection, schedule: Q01DX009 (ip), vehicle: saline with Tween-80) is 95 % of control; the T/C under setting [10] is 95 % of control; the T/C under setting [11] is 92 % of control.
